The values that follow come from ChEMBL document CHEMBL5137058, “Therapeutic Strategies to Target the Androgen Receptor” (J Med Chem, 2022).

Data set [1] addresses T1, Androgen receptor (Homo sapiens) (UniProt P10275).
T1 sequence (whole entry): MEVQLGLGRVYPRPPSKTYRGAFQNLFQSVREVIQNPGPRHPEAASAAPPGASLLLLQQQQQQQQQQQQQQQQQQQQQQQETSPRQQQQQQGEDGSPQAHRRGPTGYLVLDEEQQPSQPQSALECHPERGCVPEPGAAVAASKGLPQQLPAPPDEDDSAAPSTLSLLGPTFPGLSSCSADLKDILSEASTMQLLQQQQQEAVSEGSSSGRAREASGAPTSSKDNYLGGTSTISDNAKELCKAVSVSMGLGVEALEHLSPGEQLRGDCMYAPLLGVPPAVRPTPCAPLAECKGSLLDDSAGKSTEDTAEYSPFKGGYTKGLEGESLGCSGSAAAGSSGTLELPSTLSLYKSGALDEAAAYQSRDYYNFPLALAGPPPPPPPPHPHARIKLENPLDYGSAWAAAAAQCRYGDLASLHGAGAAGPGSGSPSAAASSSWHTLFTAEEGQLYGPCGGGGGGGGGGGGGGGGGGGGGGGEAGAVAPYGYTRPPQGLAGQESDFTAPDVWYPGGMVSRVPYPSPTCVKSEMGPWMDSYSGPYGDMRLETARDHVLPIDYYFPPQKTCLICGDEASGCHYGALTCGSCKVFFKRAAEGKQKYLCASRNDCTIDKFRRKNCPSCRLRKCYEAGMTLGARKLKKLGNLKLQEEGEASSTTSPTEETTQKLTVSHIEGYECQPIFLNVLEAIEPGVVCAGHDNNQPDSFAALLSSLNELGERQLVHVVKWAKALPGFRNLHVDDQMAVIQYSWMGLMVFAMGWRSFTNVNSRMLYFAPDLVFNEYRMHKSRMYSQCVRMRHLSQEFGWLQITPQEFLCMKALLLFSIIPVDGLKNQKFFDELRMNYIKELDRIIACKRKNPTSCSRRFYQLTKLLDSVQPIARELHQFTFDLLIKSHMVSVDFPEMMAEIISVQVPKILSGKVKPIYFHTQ
The experiment in a line: Displacement of [3H]DHT from Androgen receptor (unknown origin) relative to control. The conditions noted are these: filed as antagonist. (Displacement assays read how much labelled ligand stays bound in the presence of the test substance.)

For data set [2], the target named is T2, Androgen receptor (Homo sapiens, UniProt P10275).
T2 sequence (P10275 whole entry): T1 sequence (whole entry)
The experiment in a line: Antagonist activity at Androgen receptor (unknown origin) in African green monkey COS-1 cells. The data set is classed as cell-based.

For data set [3], the system named is LNCaP. The experiment in a line: Antitumor activity against human LNCaP cells xenografted in mouse assessed as decrease in PSA level at 25 mg/kg, sc. The data set is classed as functional. On the set-up: scale not given: the % may be the effect or the level left. A general note: A xenograft is tissue or cells of one species grown in another, often human tumour cells in immunodeficient mice.

Data set [4] deals with Rattus norvegicus. The experiment in a line: Antagonist activity in mature male Sprague-Dawley rat assessed as decrease in seminal vesicle and prostate weight at 15 mg/kg, po administered once a day for 14 days. The class given is functional. Also on record: scale not given: the % may be the effect or the level left. The settings on record: time 14 day.
For data set [5], the target named is T2, Androgen receptor. Briefly: Displacement of [3H]DHT from Androgen receptor expressed in human MDA-MB-453 cells. The data set is classed as cell-based.
In data set [6] the target is T2, Androgen receptor. The experiment in a line: Antagonist activity at Androgen receptor in human MDA-MB-453 cells measured by SEAP reporter gene assay. The class given is cell-based.
Data set [7] deals with T3, Androgen receptor (Homo sapiens, UniProt P10275, T878A). Briefly: Binding affinity to bicalutamide-resistant Androgen receptor T877A mutant (unknown origin).
Data set [8] addresses T2, Androgen receptor. Briefly: Antagonist activity at wild-type Androgen receptor (unknown origin) expressed in African green monkey COS-7 cells measured as gene transcription level. The data set is classed as cell-based.
The target in data set [9] is T2, Androgen receptor. Briefly: Binding affinity to wild-type Androgen receptor (unknown origin).
Data set [10] is described as follows: Antitumor activity against bicalutamide-resistant human LNCaP-cxD2 cells xenografted in mouse at 25 mg/kg, po administered for 28 days. The settings on record: time 28 day. The data set is classed as functional.
The target of data set [11] is T3, Androgen receptor. Briefly: Antagonist activity at Androgen receptor T877A mutant (unknown origin) expressed in African green monkey COS-7 cells measured as gene transcription level. The class given is cell-based.
Data set [12] is described as follows: Oral bioavailability in dog. The class given is ADME, organism-based, Canis lupus familiaris. The settings on record: in vivo.
Data set [13] addresses T2, Androgen receptor. The experiment in a line: Antagonist activity at Androgen receptor (unknown origin) assessed as downregulation of AR.
A short description of data set [14]: In vivo agonist activity at Androgen receptor in castrated rat assessed as increase in levator ani muscle weight at 2 mg administered orally per day for 5 days. The settings on record: route po, time 5 day. The data set is classed as functional.
A short description of data set [15]: In vivo agonist activity at Androgen receptor in castrated rat assessed as increase in prostate weight at 2 mg administered orally per day for 5 days. The class given is functional. The conditions noted are these: route po, time 5 day.
Data set [16] has as its system Rattus norvegicus. Briefly: Antagonist activity in mature male Sprague-Dawley rat assessed as decrease in seminal vesicle and prostate weight at 10 mg/kg, po administered once a day for 14 days. The data set is classed as functional. On the set-up: scale not given: the % may be the effect or the level left. The conditions noted are these: time 14 day.
Data set [17] deals with Rattus norvegicus. The experiment in a line: Antagonist activity in mature male Sprague-Dawley rat assessed as decrease in seminal vesicle and prostate weight at 1 mg/kg, po administered once a day for 14 days. The settings on record: time 14 day. On the set-up: scale not given: the % may be the effect or the level left. The class given is functional.
Data set [18] addresses T2, Androgen receptor. The experiment in a line: Antagonist activity at Androgen receptor in human LNCaP cells measured by SEAP reporter gene assay. The class given is cell-based.
The nature of data set [19]: In vivo agonist activity at Androgen receptor in castrated male rat assessed as increase in prostate weight at 0.76 mg administered orally per day. The data set is classed as functional. The settings on record: route po.
Data set [20] is described as follows: In vivo agonist activity at Androgen receptor in castrated rat assessed as increase in levator ani muscle weight at 0.11 mg administered orally per day for 14 days. The class given is functional. The settings on record: route po, time 14 day.
The target in data set [21] is T2, Androgen receptor. Briefly: Binding affinity to Androgen receptor (unknown origin). The settings on record: read-out: pIC50 (converted).
Data set [22] concerns Rattus norvegicus. The experiment in a line: Anti-androgenic activity in rat assessed as decrease in seminal vesicle weight at 2.58 microM/Kg, po administered twice daily for 7 days. The data set is classed as functional. Also on record: scale not given: the % may be the effect or the level left. The settings on record: time 7 day, at 2.58 µmol/kg.
Data set [23] can be described thus: Oral bioavailability in rat. The data set is classed as ADME, organism-based. The settings on record: in vivo.
Data set [24] is described as follows: In vivo agonist activity at Androgen receptor in castrated male rat assessed as increase in levator ani muscle weight at 0.75 mg/kg, po administered for 14 days. The class given is functional. The settings on record: time 14 day.
Data set [25] has as its target T2, Androgen receptor. The experiment in a line: Binding affinity to human Androgen receptor.
Data set [26] can be described thus: In vivo agonist activity at Androgen receptor in castrated male rat assessed as increase in prostate weight at 0.75 mg/kg, po administered for 14 days. The class given is functional. The settings on record: time 14 day.
Data set [27] deals with LNCaP. The experiment in a line: Antiproliferative activity against human LNCaP cells expressing Androgen receptor […] mutant. The data set is classed as functional, cell-based.
The test system of another data set is PC-3. The experiment in a line: Antiproliferative activity against androgen-independent human PC-3 cells. The class given is functional, cell-based.
A further data set deals with SC-3. Briefly: Antiproliferative activity against mouse SC-3 cells. The data set is classed as functional, cell-based.
A further data set deals with CWR22R. The experiment in a line: Antiproliferative activity against human 22Rv1 cells expressing Androgen receptor H874Y mutant. The class given is functional, cell-based.
The target in data set [28] is T2, Androgen receptor. Briefly: Agonist activity at Androgen receptor in human 22Rv1 cells cotransfected with pARE-LUC measured by luciferase assay. The class given is cell-based.
A short description of data set [29]: In vivo agonist activity at Androgen receptor in male rat assessed as increase in prostate weight at 2 mg/kg, po administered for 5 days. The data set is classed as functional. The settings on record: time 5 day.
Data set [30] in a line: In vivo agonist activity at Androgen receptor in male rat assessed as increase in levator ani muscle weight at 2 mg/kg, po administered for 5 days. The data set is classed as functional. The conditions noted are these: time 5 day.
Data set [31] addresses T2, Androgen receptor. The experiment in a line: Antagonist activity at Androgen receptor (unknown origin) assessed as inhibition of activation function 1 (AF-1) of AR N-terminal transactivation domain (NTD).

T3 sequence (P10275 whole entry T878A): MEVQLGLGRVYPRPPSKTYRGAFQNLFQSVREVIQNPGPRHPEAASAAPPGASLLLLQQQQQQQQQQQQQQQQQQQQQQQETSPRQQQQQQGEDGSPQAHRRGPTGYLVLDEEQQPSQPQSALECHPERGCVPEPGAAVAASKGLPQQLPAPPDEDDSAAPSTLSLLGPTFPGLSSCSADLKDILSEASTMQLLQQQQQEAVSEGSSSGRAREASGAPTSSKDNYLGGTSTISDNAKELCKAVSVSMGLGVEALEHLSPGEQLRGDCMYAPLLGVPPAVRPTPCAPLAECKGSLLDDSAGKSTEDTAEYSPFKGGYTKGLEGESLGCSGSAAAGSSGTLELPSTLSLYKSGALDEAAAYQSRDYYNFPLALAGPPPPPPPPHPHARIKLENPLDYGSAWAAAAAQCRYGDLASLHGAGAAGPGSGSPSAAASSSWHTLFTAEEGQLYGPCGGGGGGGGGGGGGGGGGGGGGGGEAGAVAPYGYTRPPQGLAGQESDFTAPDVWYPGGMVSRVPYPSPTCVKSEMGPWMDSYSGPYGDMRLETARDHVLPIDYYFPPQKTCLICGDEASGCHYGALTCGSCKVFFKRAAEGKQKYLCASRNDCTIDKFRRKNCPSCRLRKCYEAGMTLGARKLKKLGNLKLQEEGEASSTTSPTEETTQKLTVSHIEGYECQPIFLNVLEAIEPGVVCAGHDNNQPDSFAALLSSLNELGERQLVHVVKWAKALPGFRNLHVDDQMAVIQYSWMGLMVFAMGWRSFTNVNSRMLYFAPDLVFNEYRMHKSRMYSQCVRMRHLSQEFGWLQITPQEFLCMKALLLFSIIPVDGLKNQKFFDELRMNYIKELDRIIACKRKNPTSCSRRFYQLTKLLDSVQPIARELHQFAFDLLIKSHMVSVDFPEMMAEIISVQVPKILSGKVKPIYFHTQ

As to `N#Cc1ccc(C2=NO[C@H]3CCCC[C@@H]23)cc1C(F)(F)F`, the Activity in data set [1] is 99.2%. This compound also showed an IC50 at Androgen receptor [2] of 27.5 nM.

Consider `Cc1nc(O[C@H]2C(C)(C)[C@H](NC(=O)c3cnc4ncccn34)C2(C)C)ccc1C#N`, for which the Activity in the data set with LNCaP [3] is recorded as more than 90%.

For the compound `CNC(=O)[C@]12C(=O)N(c3ccc(C#N)c(C(F)(F)F)c3)C(=O)[C@H]1[C@H]1C[C@H](F)[C@@H]2C1`, the Activity in the data set with Rattus norvegicus [4] is on record as 35%. For the same compound, the Ki – broadly, the equilibrium dissociation constant of an inhibitor or competing ligand from its target – on Androgen receptor [5] is 8 nM. The compound also gave an IC50 at Androgen receptor [6] of 91 nM.

Consider `Cc1c(C#N)c(-c2ccc(C#N)cc2)c(C)n1-c1cnc(Cl)c(CO)c1`, for which the IC50 worked out at 100 nM at Androgen receptor [7], 25 nM on Androgen receptor [8], 37 nM at Androgen receptor [9] and 110 nM against Androgen receptor [11]. The T/C (in general, the ratio of treated to control) in [10] was determined as 15%.

For `CC(=O)N1CCN(CCOc2ccc(C3CCN(C4=Nn5c(nnc5C(F)(F)F)CC4)CC3)cc2)CC1` [AZD3514], in [12], the bioavailability (usually dose-corrected exposure relative to a reference, in per cent) came out at 75%. The IC50 on Androgen receptor [13] was more than 1780 nM.

For the compound `C[C@@]12CC(C(F)(F)F)=NN1C(=O)N(c1ccc(C#N)c(C(F)(F)F)c1)C2=O`, the results for the Activity in [14] and in data set [15] were 75% and 11%, respectively.

As to `CCS(=O)(=O)N[C@@H]1C[C@@]2(C)O[C@]1(C)[C@@H]1C(=O)N(c3ccc(C#N)c(C(F)(F)F)c3)C(=O)[C@@H]12`, the figures for the Activity in the data set with Rattus norvegicus [16] and with Rattus norvegicus [17] were 74% and 42%, respectively. The inhibitory constant (Ki) on Androgen receptor [5] came to 1.7 nM. Besides, the IC50 was 16 nM against Androgen receptor [6] and 153 nM against Androgen receptor [18].

On to `C[C@@]1(C(=O)Nc2ccc(C#N)c(C(F)(F)F)c2)CC(C(F)(F)F)=NN1`, for which the Activity in [19] is on record as 51%; in [20], 90%.

On to `N#Cc1ccc(CN2CCN(c3ccc4nnc(C(F)(F)F)n4n3)CC2)cc1`, for which the IC50 on Androgen receptor [21] is more than 79400 nM; at Androgen receptor [13], more than 1580 nM. Further, the Activity in the data set on Rattus norvegicus [22] is given as 80%. This compound also showed a bioavailability in data set [23] of 100%.

Regarding `Cc1c(N2C3CCC2CC(C)(O)C3)ccc(C#N)c1Cl` (configuration not stated), the Activity in data set [24] was 68%; in data set [26], 21%. The compound further gave an IC50 on Androgen receptor [25] of 1 nM.

Turning to `COc1cccc(C(=O)Nc2ccc(Oc3ccc(O)cc3)c(C)c2)c1`, the IC50 is 43 nM with LNCaP [27], more than 10000 nM with PC-3, 750 nM in the data set on SC-3 and 220 nM in the data set with CWR22R.

With `CCCN(CC(F)(F)F)c1cc(Br)c(C#N)s1`, the IC50 at Androgen receptor [28] turned out to be 10 nM.

With `Cc1c(/N=C2\N=C(N)N3N=C(C(F)(F)F)C[C@@]23C)ccc(C#N)c1C(F)(F)F`, the Activity in [29] is recorded as 36%; in data set [30], 91%.

For `CC(=O)OC[C@H](COc1ccc(C(C)(C)c2ccc(OC[C@@H](CCl)OC(C)=O)cc2)cc1)OC(C)=O` [RALANITEN ACETATE], the IC50 at Androgen receptor [31] was found to be 9600 nM.
